Patent US8377884B2, “Variants of C-type natriuretic peptides” (Biomarin Pharmaceutical Inc., priority 2007, dated 2013)
Like-named read-outs stand apart in the source and are kept apart here. One block for each molecule: values may come before it. Numbered stars: 1 amine (or outer) side, 2 acyl side, 3 side chain; on linkers, the order of the positions; unused ones are H or OH. Bridge positions count the residues as written; N and C are the ends. Square brackets hold non-standard residues; d marks the D form. Ends that are not written are not given here. Peptide text beside a SMILES is read from it. PEG2K = polydispersed PEG of number-average molecular weight 2 kDa; X1 = O=C(C(CN[*:1])c1ccccc1)[*:2]

Columns and labels:
Recombinant human NEP = Recombinant human NEP (Homo sapiens, UniProt P08473); experiment: in vitro; conditions: for NEP Cleavage (t1/2, min): pH 7
Chain of Recombinant human NEP (P08473 whole entry): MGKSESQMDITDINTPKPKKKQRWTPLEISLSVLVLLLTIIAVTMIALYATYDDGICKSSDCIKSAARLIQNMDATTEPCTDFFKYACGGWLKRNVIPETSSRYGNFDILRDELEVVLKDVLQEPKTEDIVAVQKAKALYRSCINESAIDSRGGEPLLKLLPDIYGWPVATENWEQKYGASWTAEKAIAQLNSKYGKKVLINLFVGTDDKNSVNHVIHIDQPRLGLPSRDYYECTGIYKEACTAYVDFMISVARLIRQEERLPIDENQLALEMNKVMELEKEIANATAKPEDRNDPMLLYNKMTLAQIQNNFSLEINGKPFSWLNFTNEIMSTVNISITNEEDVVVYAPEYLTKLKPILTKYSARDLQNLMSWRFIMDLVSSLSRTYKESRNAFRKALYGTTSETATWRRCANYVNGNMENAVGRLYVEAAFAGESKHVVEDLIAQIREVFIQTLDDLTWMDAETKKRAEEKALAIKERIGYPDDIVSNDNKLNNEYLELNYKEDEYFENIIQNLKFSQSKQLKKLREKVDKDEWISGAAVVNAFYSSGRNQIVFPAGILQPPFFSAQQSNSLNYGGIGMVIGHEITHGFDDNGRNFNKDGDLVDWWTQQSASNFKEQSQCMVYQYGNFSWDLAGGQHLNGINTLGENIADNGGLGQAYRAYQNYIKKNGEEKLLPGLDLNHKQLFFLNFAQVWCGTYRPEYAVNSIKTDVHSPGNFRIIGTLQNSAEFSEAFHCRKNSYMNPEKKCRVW
Method in brief: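 Recombinant human NEP (1 ug/mL final) incubated with 100 uM CNP variant in 0.1 M Tris, pH 7, at 37° C for various times, then quenched with EDTA (10 mM final) and heat. Samples reduced and analysed by HPLC and mass spectrometry. Half-life derived from loss of intact variant over time.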

NPR-B = target: T1, NPR-B (Mus musculus, UniProt Q6VVW5); experiment: Stimulation of cGMP production in NIH3T3 cells; format: cell-based, Murine; conditions: for cGMP response relative to 1 uM CNP22 (%) at 0.01 µM: read-out: cGMP Response rel. to 1 uM CNP22, 10 nM; for cGMP response relative to 1 uM CNP22 (%) at 1 µM: read-out: cGMP Response rel. to 1 uM CNP22, 1 uM
T1 construct: Murine NIH3T3 cells express endogenously the CNP signaling receptor, NPR-B; endogenous in cells; host or cells: NIH3T3 (murine fibroblasts)
T1 sequence (Q6VVW5 17-1047): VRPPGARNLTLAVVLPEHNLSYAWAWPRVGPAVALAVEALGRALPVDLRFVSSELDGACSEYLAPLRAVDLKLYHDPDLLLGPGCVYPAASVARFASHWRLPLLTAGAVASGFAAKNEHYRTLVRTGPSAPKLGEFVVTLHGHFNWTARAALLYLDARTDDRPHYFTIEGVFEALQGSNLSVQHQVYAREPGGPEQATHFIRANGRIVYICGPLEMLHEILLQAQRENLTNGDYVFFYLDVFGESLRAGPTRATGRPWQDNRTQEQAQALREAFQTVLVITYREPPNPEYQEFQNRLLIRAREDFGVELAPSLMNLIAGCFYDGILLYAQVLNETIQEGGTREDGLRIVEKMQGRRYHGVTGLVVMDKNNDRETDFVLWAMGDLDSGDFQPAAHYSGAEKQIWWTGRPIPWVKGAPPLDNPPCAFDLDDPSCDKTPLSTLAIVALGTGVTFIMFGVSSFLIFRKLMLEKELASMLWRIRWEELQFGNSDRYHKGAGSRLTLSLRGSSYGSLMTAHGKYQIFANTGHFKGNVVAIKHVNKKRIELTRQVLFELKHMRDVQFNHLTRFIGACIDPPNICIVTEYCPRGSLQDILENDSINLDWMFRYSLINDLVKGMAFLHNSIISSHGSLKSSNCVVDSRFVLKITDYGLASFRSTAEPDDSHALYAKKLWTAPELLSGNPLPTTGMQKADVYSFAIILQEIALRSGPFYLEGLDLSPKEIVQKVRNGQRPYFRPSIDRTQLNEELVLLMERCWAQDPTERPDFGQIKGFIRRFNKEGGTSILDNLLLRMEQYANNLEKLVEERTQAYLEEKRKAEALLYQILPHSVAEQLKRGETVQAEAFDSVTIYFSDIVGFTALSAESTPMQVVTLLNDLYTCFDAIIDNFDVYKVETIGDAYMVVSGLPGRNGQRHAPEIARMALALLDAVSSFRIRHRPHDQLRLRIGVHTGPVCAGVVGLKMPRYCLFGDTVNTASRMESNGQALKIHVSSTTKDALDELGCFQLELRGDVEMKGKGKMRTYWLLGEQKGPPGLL

[1] = NIH3T3 cells, 10 nM natriuretic peptide, normalized to cell number and cGMP production with 1 uM wtCNP22
[2] = NIH3T3 cells, 1 uM natriuretic peptide, normalized to cell number and cGMP production with 1 uM wtCNP22

Molecule: CC[C@H](C)[C@@H]1NC(=O)[C@H](CCCNC(=N)N)NC(=O)[C@H](CC(=O)O)NC(=O)[C@H](CC(C)C)NC(=O)[C@H](CCCCN)NC(=O)[C@H](CC(C)C)NC(=O)CNC(=O)[C@H](Cc2ccccc2)NC(=O)[C@@H](NC(=O)CNC(=O)[C@H](CCCNC(=N)N)NC(=O)[C@H](CO)NC(=O)[C@H](CC(C)C)NC(=O)CNC(=O)[C@H](CCCNC(=N)N)NC(=O)[C@H](CCCNC(=N)N)NC(=O)[C@H](CC(N)=O)NC(=O)[C@H](C)NC(=O)CN)CSSC[C@@H](C(=O)O)NC(=O)CNC(=O)[C@H](CC(C)C)NC(=O)CNC(=O)[C@H](CO)NC(=O)[C@H](CCSC)NC(=O)[C@H](CO)NC(=O)CNC1=O [Analog AY] (H-GANRRGLSRGCFGLKLDRIGSMSGLGC-OH; disulfide 11-27 (inferred); N-terminus and C-terminus assumed)
resistance to NEP cleavage/degradation (in words) (Recombinant human NEP): same lability to NEP hydrolysis as CNP22

Molecule: CC[C@H](C)[C@@H]1NC(=O)[C@H](CCCNC(=N)N)NC(=O)[C@H](CC(=O)O)NC(=O)[C@H](CC(C)C)NC(=O)[C@H](CCCCN)NC(=O)[C@H](CC(C)C)NC(=O)CNC(=O)[C@H](Cc2ccccc2)NC[C@@H](NC(=O)CNC(=O)[C@H](CCCCN)NC(=O)[C@H](CO)NC(=O)[C@H](CC(C)C)NC(=O)CN)CSSC[C@@H](C(=O)O)NC(=O)CNC(=O)[C@H](CC(C)C)NC(=O)CNC(=O)[C@H](CO)NC(=O)[C@H](CCSC)NC(=O)[C@H](CO)NC(=O)CNC1=O [A]
resistance to cleavage at the Cys6-Phe7 bond relative to wtCNP22 (Recombinant human NEP; data not shown): resistance or improved resistance

Molecule: CC[C@H](C)[C@@H]1NC(=O)[C@H](CCCNC(=N)N)NC(=O)[C@H](CC(=O)O)NC(=O)[C@H](CC(C)C)NC(=O)[C@H](CCCCN)NC(=O)[C@H](CC(C)C)NC(=O)CNC(=O)[C@H](Cc2ccccc2)NC(=O)[C@@H](NC(=O)CNC(=O)[C@H](CCCCN)NC(=O)[C@H](CO)NC(=O)[C@H](CC(C)C)NC(=O)CNC(=O)[C@H](CCCCN)NC(=O)[C@H](CCCCN)NC(=O)[C@H](CC(N)=O)NC(=O)[C@H](C)NC(=O)CNC(=O)[C@H](CCCCN)NC(=O)[C@H](Cc2ccc(O)cc2)NC(=O)[C@H](CCCCN)NC(=O)[C@H](CCCNC(=N)N)NC(=O)[C@H](C)NC(=O)[C@H](CC(N)=O)NC(=O)[C@@H]2CCCN2C(=O)[C@H](Cc2c[nH]cn2)NC(=O)[C@H](CCC(=O)O)NC(=O)[C@@H](N)CCC(N)=O)CSSC[C@@H](C(=O)O)NC(=O)CNC(=O)[C@H](CC(C)C)NC(=O)CNC(=O)[C@H](CO)NC(=O)[C@H](CCSC)NC(=O)[C@H](CO)NC(=O)CNC1=O [Analog BL]
resistance to NEP cleavage/degradation (in words) (Recombinant human NEP): resistant to NEP degradation

Molecule: PEG2K-CNP22: CNP22 conjugated at the N-terminus to polydispersed PEG2K
cGMP Response rel. to 1 uM CNP22, 10 nM (NPR-B; [1]): 6 ± 2
cGMP Response rel. to 1 uM CNP22, 1 uM (NPR-B; [2]): 32 ± 4
NEP Cleavage (t1/2, min) (Recombinant human NEP): >>160 min

Molecule: CC[C@H](C)[C@@H]1NC(=O)[C@H](CCCNC(=N)N)NC(=O)[C@H](CC(=O)O)NC(=O)[C@H](CC(C)C)NC(=O)[C@H](CCCCN)NC(=O)[C@H](CC(C)C)NC(=O)CNC(=O)[C@H](Cc2ccccc2)N(C)C(=O)[C@@H](NC(=O)CNC(=O)[C@H](CCCCN)NC(=O)[C@H](CO)NC(=O)[C@H](CC(C)C)NC(=O)CN)CSSC[C@@H](C(=O)O)NC(=O)CNC(=O)[C@H](CC(C)C)NC(=O)CNC(=O)[C@H](CO)NC(=O)[C@H](CCSC)NC(=O)[C@H](CO)NC(=O)CNC1=O [B]
cGMP response relative to 1 uM CNP22 (%) at 0.01 µM (NPR-B; NIH3T3, […]): 2%
cGMP response relative to 1 uM CNP22 (%) at 1 µM (NPR-B; NIH3T3, […]): 38%
resistance to cleavage at the Cys6-Phe7 bond relative to wtCNP22 (Recombinant human NEP; data not shown): resistance or improved resistance
resistance to cleavage of the Gly8-Leu9 bond (Recombinant human NEP; in the presence of 1 ug/mL NEP, data not shown): exhibited resistance

Molecule: PEG2K-CNP22(K4G): CNP22 having a K4G substitution, N-terminal PEGylated with PEG2K (PEG2K-GLSGGCFGLKLDRIGSMSGLGC; disulfide 6-22 (inferred); UniProt P23582 105-126, looked up, variant K4G)
resistance to NEP cleavage/degradation (in words) (Recombinant human NEP): only slightly more resistant to NEP cleavage than CNP22

Now from value to molecule, other results behind:

cGMP response relative to 1 uM CNP22 (%) at 0.01 µM (NPR-B; [1]): 36%
cGMP response relative to 1 uM CNP22 (%) at 1 µM (NPR-B; [2]): 84%
Molecule: CC[C@H](C)[C@@H]1NC(=O)[C@H](CCCNC(=N)N)NC(=O)[C@H](CC(=O)O)NC(=O)[C@H](CC(C)C)NC(=O)[C@H](CCCCN)NC(=O)[C@H](CC(C)C)NC(=O)CNC(=O)[C@H](Cc2ccccc2)NC(=O)[C@@H](NC(=O)CNC(=O)[C@H](CCCCN)NC(=O)[C@H](CO)NC(=O)[C@H](CC(C)C)NC(=O)CNC(=O)[C@H](CCCNC(=N)N)NC(=O)[C@H](C)NC(=O)[C@H](CC(N)=O)NC(=O)[C@@H]2CCCN2C(=O)[C@H](Cc2c[nH]cn2)NC(=O)[C@H](CCC(=O)O)NC(=O)[C@H](CCC(N)=O)NC(=O)[C@H](CC(C)C)NC(=O)[C@H](CC(C)C)NC(=O)[C@H](CCCNC(=N)N)NC(=O)[C@H](C)NC(=O)[C@H](Cc2c[nH]c3ccccc23)NC(=O)[C@H](C)NC(=O)[C@H](C)N)CSSC[C@@H](C(=O)O)NC(=O)CNC(=O)[C@H](CC(C)C)NC(=O)CNC(=O)[C@H](CO)NC(=O)[C@H](CCSC)NC(=O)[C@H](CO)NC(=O)CNC1=O [CB] (H-AAWARLLQEHPNARGLSKGCFGLKLDRIGSMSGLGC-OH; disulfide 20-36 (inferred); N-terminus and C-terminus assumed)
resistance to NEP cleavage/degradation (in words) (Recombinant human NEP): much more resistant to NEP cleavage than CNP22

cGMP Response rel. to 1 uM CNP22, 10 nM (NPR-B; [1]): 0
cGMP Response rel. to 1 uM CNP22, 1 uM (NPR-B; [2]): 15
Molecule: PEG20K-CNP22: CNP22 conjugated at the N-terminus to polydispersed PEG20K
NEP Cleavage (t1/2, min) (Recombinant human NEP): >>160 min

cGMP response relative to 1 uM CNP22 (%) at 0.01 µM (NPR-B; [1]): 24%
cGMP response relative to 1 uM CNP22 (%) at 1 µM (NPR-B; [2]): 76%
Molecule: CC[C@H](C)[C@@H]1NC(=O)[C@H](CCCNC(=N)N)NC(=O)[C@H](CC(=O)O)NC(=O)[C@H](CC(C)C)NC(=O)[C@H](CCCCN)NC(=O)[C@H](CC(C)C)NC(=O)CNC(=O)[C@H](Cc2ccccc2)NC(=O)[C@@H](NC(=O)CNC(=O)[C@H](CCCCN)NC(=O)[C@H](CO)NC(=O)[C@H](CC(C)C)NC(=O)CNC(=O)[C@H](C)NC(=O)[C@H](CC(N)=O)NC(=O)[C@@H]2CCCN2C(=O)[C@H](Cc2c[nH]cn2)NC(=O)[C@H](CCC(=O)O)NC(=O)[C@H](CCC(N)=O)NC(=O)[C@H](CC(C)C)NC(=O)[C@H](CC(C)C)NC(=O)[C@H](CCCNC(=N)N)NC(=O)[C@H](C)NC(=O)[C@H](Cc2c[nH]c3ccccc23)NC(=O)[C@H](C)NC(=O)[C@H](C)N)CSSC[C@@H](C(=O)O)NC(=O)CNC(=O)[C@H](CC(C)C)NC(=O)CNC(=O)[C@H](CO)NC(=O)[C@H](CCSC)NC(=O)[C@H](CO)NC(=O)CNC1=O [CA] (H-AAWARLLQEHPNAGLSKGCFGLKLDRIGSMSGLGC-OH; disulfide 19-35 (inferred); N-terminus and C-terminus assumed)
resistance to NEP cleavage/degradation (in words) (Recombinant human NEP): much more resistant to NEP cleavage than CNP22

cGMP Response rel. to 1 uM CNP22, 10 nM (NPR-B; [1]): 15 ± 3
cGMP Response rel. to 1 uM CNP22, 1 uM (NPR-B; [2]): 68 ± 17
Molecule: PEG1K-CNP22: CNP22 conjugated at the N-terminus to polydispersed PEG1K
NEP Cleavage (t1/2, min) (Recombinant human NEP): >>160 min

resistance to NEP cleavage/degradation (in words) (Recombinant human NEP): resistant to NEP degradation
Molecule: DLRVDTKSRAAWARLLQEHPNARKYKGANKKGLSKGCFGLKLDRIGSMSGLGC (disulfide 37-53 (inferred)) [Analog BM]

resistance to cleavage at the Cys6-Phe7 bond relative to wtCNP22 (Recombinant human NEP): resistance or improved resistance
Molecule: CC[C@H](C)[C@@H]1NC(=O)[C@H](CCCNC(=N)N)NC(=O)[C@H](CC(=O)O)NC(=O)[C@H](CC(C)C)NC(=O)[C@H](CCCCN)NC(=O)[C@H](CC(C)C)NC(=O)CNC(=O)C(c2ccccc2)CNC(=O)[C@@H](NC(=O)CNC(=O)[C@H](CCCCN)NC(=O)[C@H](CO)NC(=O)[C@H](CC(C)C)NC(=O)CN)CSSC[C@@H](C(=O)O)NC(=O)CNC(=O)[C@H](CC(C)C)NC(=O)CNC(=O)[C@H](CO)NC(=O)[C@H](CCSC)NC(=O)[C@H](CO)NC(=O)CNC1=O (stereo partly shown) [H] (H-GLSKGC[X1]GLKLDRIGSMSGLGC-OH; disulfide 6-22; N-terminus and C-terminus assumed)
